{
  "source": "patent US20180318383A1",
  "about": "“PEPTIDE HAVING NEURONAL LOSS PREVENTION AND REGENERATION EFFECTS, AND COMPOSITION CONTAINING SAME” (GEMVAX & KAEL CO., LTD., priority 2015, published 2018)",
  "key": {"[1]": {"system": "AD transgenic mice (3XTg-AD)", "test": "Y-maze test", "assay_type": "in vivo", "procedure": "To test the efficacy of PEP1 on AD, AD transgenic mice (3XTg-AD) were purchased from Jackson Laboratory. Genetic characteristics of the transgenic mice are as follows: B6; 129-Psen1tm1Mpm Tg(APPSwe, tauP301L)1Lfa/Mmjax. […] One week after mice were confirmed as pregnant, new mice were delivered and weaned for 3 weeks. Two weeks later, mature mice were obtained.\nDuring the preliminary breeding and the entire period of the experiment, a temperature was maintained at 23±2° C. and a relative humidity was maintained at 60±10%, and then the mice were raised under a 12-hour dark/light cycle. Experimental animals were divided into five groups, and each group included 10 animals. The divided experimental groups are as follows. […]\nThe PEP1, physiological saline, donepezil and scramble peptide were subcutaneously injected at each concentration three times a week for two months from the age of 12 months, and then two months after the injection, cognitive/memory behavior tests (passive avoidance test and Y maze test) were performed to examine a degree of improvement in cognitive function and memory function. After the brain was extracted to separate the hippocampus, the amounts of amyloid beta in the hippocampus and the whole brain, and the amounts of an amyloid beta oligomer and NFT generated by tau hyperphosphorylation were determined by western blotting and immunostaining. […]"}, "NSCs [2]": {"system": "NSCs", "test": "Cell viability of NSCs (CCK-8, MTT, LDH)", "assay_type": "cell-based, rat", "conditions": "48 hours", "procedure": "NSCs were isolated from the brain of a rat embryo, cultured and developed. The NSC culture was performed in the same manner as to be described below. Briefly describing, a rat embryo was obtained on day 13 of the embryonic period, and the brain was quickly removed and placed in a petri dish containing cold phosphate-buffered physiological saline (Hank's balanced salt solution; HBSS).\nSingle cells were isolated from the cerebral cortex, the lateral ganglion eminence, and the embryonic midbrain. These cells were put into a dish pre-treated with L-ornithine and fibronectin, containing calcium and magnesium-free phosphate-buffered physiological saline (PBS) at a density of 20,000 cells/cm^2. In addition, the cells were cultured in an N2 medium (DMEM F/12, […] insulin, 100 mg/L transferrin, 30 nM selenite, […], 20 nM progesterone, 0.2 mM ascorbic acid, […], 8.6 mM D(+) glucose, and […]). The culture was maintained in humidified and 5% CO2 conditions for 4 to 6 days at 37° C.\nNSCs were divided into 6 samples, and each sample was treated with […] Aβ25-30 oligomers for 48 hours to identify a suitable concentration. […] Briefly, Aβ25-30 was dissolved in hexafluoroisopropanol to reach a concentration of 1 mM. In addition, the prepared solution was dispensed using a sterilized ultramicrocentrifuge tube. […]\nTo identify the PEP1 effect in NSCs, PEP1 was treated at various concentrations of 0, 1, 10, 50, 100, and 200 μM for 48 hours. […] The plate was gently washed with PBS several times, and cell viability was measured using a cell counting kit-8 (CCK-8), MTT and lactate dehydrogenase (LDH).\nCCK-8 was used as a method for counting living cells by bonding 2-[2-methoxy-4-nitrophenyl]-3-[4-nitrophenyl]-5-[2,4-disulfophenyl]-2H-tetrazolium, monosodium salt (WST-8) with 1-methoxyphenazinium methylsulfate (PMS). […] Cell viability was evaluated by measuring absorbance at 450 nm. […] Cell viability was evaluated by measuring absorbance at 490 nm and reference absorbance at 690 nm. […]"}, "NSCs [3]": {"system": "NSCs", "test": "ROS production in NSCs (DCFH-DA staining)", "assay_type": "cell-based, rat", "conditions": "20 μM Aβ25-35 + PEP1, 48 hours, DCF fluorescence", "procedure": "NSCs were treated with 20 μM Aβ25-30 for 48 hours and stained with DCFH-DA for 15 minutes to measure ROS. NSCs were treated with a varying concentration of PEP1 and 20 μM Aβ25-30 for 48 hours. After culturing, the cells were stained with 10 μM DCFH-DA at 37° C. for 15 minutes and washed with PBS three times. DCFH-DA freely passed through the cell membrane, and then was degraded into DCF by an esterase present in the cells. Therefore, a DCF fluorescent intensity refers to an intracellular hydrogen peroxide (ROS) level. DCF accumulation was evaluated using a reader according to an absorbance at 490 nm and a reference absorbance at 690 nm. Flow cytometry was observed and analyzed using an Accuri C6 flow cytometer."}},
  "data": [
    {"sequence": "EARPALLTSRLRFIPK (homo sapiens) [PEP1, hTERT-derived peptide consisting of 16 amino acids, telomerase location [611-626]]", "values": [
      {"measurement": "behavioral judgment (Y-maze test)", "setting": "[1]; 3XTg-AD mice, treated from age 12 months, vs control and Donepezil", "result": "excellent behavioral judgment"},
      {"measurement": "ability to select a new path (spontaneous alteration (%)), Y-maze test", "setting": "[1]; severe AD models, 20-month-old or older 3XTg-AD mice, PEP1 1 mg/kg s.c., vs physiological saline", "result": "increased"},
      {"measurement": "survival ability of NSCs", "setting": "NSCs [2]; 20 μM Aβ25-35 + PEP1 up to 100 μM, vs 20 μM Aβ25-35 only, MTT, CCK-8, LDH", "result": "gradually increased"},
      {"measurement": "cell survival ability", "setting": "NSCs [2]; NSCs, PEP1 alone 0-200 μM, CCK-8, up to 100 μM", "result": "not influenced"},
      {"measurement": "amount of ROS induced by Aβ25-35", "setting": "NSCs [3]", "result": "significantly reduces"}
    ]}
  ]
}
